The text below walks through data of US6498247B2, “Alkali or alkaline earth metal of n-butyric acid for treatment of cognitive and emotional conditions” (Pro-Health, Inc., priority 2000, dated 2002).

The nature of the series: Case report: subject, under treatment for uneasiness, short temper and prolonged anger. Format: in vivo, human. Particulars: while taking welbutrin, before the butyrate. The text has this: A subject was under treatment for uneasiness, short temper and prolonged anger, and was taking welbutrin.

On to `CC(NC(C)(C)C)C(=O)c1cccc(Cl)c1` (stereo not shown) [welbutrin, 1-(3-chlorophenyl)-2-[(1,1-dimethylethyl)amino]-1-propanone], for which the “side effects suffered under prior treatment” value was “stomach discomfort, memory deficiency and reduced clarity of thought”.
